Values of other authors as cited in patent US20100129295A1, “Compositions for preventing and/or treating gingivitis” (priority 2008, published 2010).

Legend:
TNF-α = TNF-α (Homo sapiens, UniProt P01375)
[1] = females taking supplements; 27 females with gingivitis compared with women without
[2] = test system: TNF-α induced cellular responses

Chain of TNF-α (P01375 whole entry, species assumed): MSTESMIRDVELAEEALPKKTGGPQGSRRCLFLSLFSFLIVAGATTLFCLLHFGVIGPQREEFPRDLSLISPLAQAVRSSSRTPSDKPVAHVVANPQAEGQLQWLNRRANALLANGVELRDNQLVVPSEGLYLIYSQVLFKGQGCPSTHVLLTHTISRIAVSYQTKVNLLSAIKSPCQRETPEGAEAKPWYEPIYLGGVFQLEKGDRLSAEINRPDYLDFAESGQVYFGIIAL

Compound: C/C(O)=C(\C#N)C(=O)Nc1ccc(C(F)(F)F)cc1 [A 771726, teriflunomide]
- TNF-α and IL-1 from Kupffer cells (Kupffer cells): inhibits

Compound: Cc1cc(C(=O)Nc2ccc(Cl)cc2)no1 [UTL-5d]
- inhibition of TNF-α (TNF-α): inhibition

Compound: [Ca+2] [calcium]
- risk of gingivitis [1]: reduced risk

Compound: Cc1oncc1C(=O)Nc1ccc(C(F)(F)F)cc1 [leflunomide]
- TNF-α induced cellular responses [2]: suppresses

Compound: Cc1cc2nc3c(=O)[nH]c(=O)nc-3n(C[C@H](O)[C@H](O)[C@H](O)CO)c2cc1C [vitamin B2]
- risk of gingivitis [1]: reduced risk
